Measured values: patent publication US5160526A, “Alkene stabilizers for 3-isothiazolone compounds” (priority 1991, dated 1992)
Read-outs that look alike come from different tables or passages of the source.

Key:
[1] = assay type: physicochemical; details: for 2-Methyl (%) / 5-Chloro (%): DPG, 55° C
Procedure: This solution was distributed into 6 vials (3 g each) and varying amounts of cyclohexene were added. The vials were then heated at 55° C. and analyzed periodically.

[2] = assay type: physicochemical; details: 2-propanol, 55° C
Procedure: Varying amounts of DHP were added and the vials put in a 55° C. oven. Active ingredient analysis was done periodically.

[3] = Stabilization of 5-Chloro and 2-Methyl mixture by norbornene in dipropylene glycol containing 0.5% water, 55° C oven; assay type: physicochemical; details: DPG (0.5% water)
Procedure: To 19.9 g of dipropylene glycol was added 0.1 g of water. […] This solution was distributed into 6 vials and varying amounts of norbornene were added.

[4] = assay type: physicochemical; details: kerosene/diethylene glycol butyl ether
Procedure: In a formulation comprised of 3 parts by weight of a mixture of 5-chloro-2-methyl-3-isothiazolone and 2-methyl-3-isothiazolone in a 3:1 ratio, 94 parts by weight of a mixture of kerosene […] and diethylene glycol butyl ether (20 parts by weight), 3 parts by weight norbornene stabilizer was added. The control had no norbornene.
Example 9 was repeated except using 1 part by weight norbornene. No loss of 5-chloro-2-methyl-3-isothiazolone was observed after eight weeks at 55° C.
Example 9 was repeated except using 1-tetradecene as stabilizer resulting in 86% 5-chloro-2-methyl-3-isothiazolone remaining after four weeks at 55° C. and complete loss by eight weeks.

[5] = 2-propanol + 2% water, 55° C
Procedure: A solution of 5-chloro-2methyl-3-isothiazolone ("5-Chloro") and 2-methyl-3-isothiazolone ("2-Methyl") (3.11 g) was prepared in 2-propanol (12.1 g). This solution was distributed in 6 vials. Water (2%) and varying amounts of norbornene were then added. These were then put in a 55° C. oven and analyzed periodically.

[6] = Stabilization of 5-Chloro and 2-Methyl mixture by norbornene in 2-propanol, 55° C oven; assay type: physicochemical
Excerpt: This solution was distributed into 6 vials and varying amounts of norbornene added.

SMILES: C1=CCCCC1 [cyclohexene]
- stabilizer function (in words) [1]: functions as a stabilizer

SMILES: Cn1sc(Cl)cc1=O [5-chloro-2-methyl-3-isothiazolone]
- 2-Methyl (%) / 5-Chloro (%) ([2]; 0% DHP, 0 days): 11.6%
- 2-Methyl (%) / 5-Chloro (%) ([2]; 0% DHP, 12 days): 0.4%
- 2-Methyl (%) / 5-Chloro (%) ([2]; 3.5% DHP, 0 days): 11.1%
- 2-Methyl (%) / 5-Chloro (%) ([2]; 3.5% DHP, 12 days): 0.1%
- 2-Methyl (%) / 5-Chloro (%) ([2]; 6.3% DHP, 0 days): 10.8%
- 2-Methyl (%) / 5-Chloro (%) ([2]; 6.3% DHP, 12 days): 0.1%
- 2-Methyl (%) / 5-Chloro (%) ([2]; 11.8% DHP, 0 days): 10.2%
- 2-Methyl (%) / 5-Chloro (%) ([2]; 11.8% DHP, 12 days): 0.6%
- 2-Methyl (%) / 5-Chloro (%) ([2]; 16.7% DHP, 0 days): 9.7%
- 2-Methyl (%) / 5-Chloro (%) ([2]; 16.7% DHP, 12 days): 0.5%
- 2-Methyl (%) / 5-Chloro (%) ([2]; 21.1% DHP, 0 days): 9.2%
- 2-Methyl (%) / 5-Chloro (%) ([2]; 21.1% DHP, 12 days): 0.4%
- 2-Methyl (%) / 5-Chloro (%) ([3]; 0% norbornene, 0 days): 11.7%
- 2-Methyl (%) / 5-Chloro (%) ([3]; 0% norbornene, 14 days): 0.0%
- 2-Methyl (%) / 5-Chloro (%) ([3]; 0% norbornene, 30 days): 0%
- 2-Methyl (%) / 5-Chloro (%) ([3]; 1.6% norbornene, 0 days): 11.7%
- 2-Methyl (%) / 5-Chloro (%) ([3]; 1.6% norbornene, 14 days): 0%
- 2-Methyl (%) / 5-Chloro (%) ([3]; 3.2% norbornene, 0 days): 11.5%
- 2-Methyl (%) / 5-Chloro (%) ([3]; 3.2% norbornene, 14 days): 10.4%
- 2-Methyl (%) / 5-Chloro (%) ([3]; 3.2% norbornene, 30 days): 0.1%
- 2-Methyl (%) / 5-Chloro (%) ([3]; 6.5% norbornene, 0 days): 11.2%
- 2-Methyl (%) / 5-Chloro (%) ([3]; 6.5% norbornene, 14 days): 10.8%
- 2-Methyl (%) / 5-Chloro (%) ([3]; 6.5% norbornene, 30 days): 10.1%
- 2-Methyl (%) / 5-Chloro (%) ([3]; 9.0% norbornene, 0 days): 11.0%
- 2-Methyl (%) / 5-Chloro (%) ([3]; 9.0% norbornene, 14 days): 10.7%
- 2-Methyl (%) / 5-Chloro (%) ([3]; 9.0% norbornene, 30 days): 10.4%
- 2-Methyl (%) / 5-Chloro (%) ([3]; 14.3% norbornene, 0 days): 10.5%
- 2-Methyl (%) / 5-Chloro (%) ([3]; 14.3% norbornene, 14 days): 10.2%
- 2-Methyl (%) / 5-Chloro (%) ([3]; 14.3% norbornene, 30 days): 9.7%
- loss of 5-chloro-2-methyl-3-isothiazolone ([4]; 1-tetradecene as stabilizer, by eight weeks at 55° C): complete loss
- loss of 5-chloro-2-methyl-3-isothiazolone ([4]; 1 part by weight norbornene, eight weeks at 55° C): No loss
- 5-chloro-2-methyl-3-isothiazolone left ([4]; control, no norbornene, eight weeks at 55° C): no 5-chloro-2-methyl-3-isothiazolone left
- 5-chloro-2-methyl-3-isothiazolone remaining ([4]; 672 h): 86%
- 5-chloro-2-methyl-3-isothiazolone remaining ([4]; 1344 h): 100%
- 2-Methyl (%) / 5-Chloro (%) ([1]; 0% cyclohexene, 0 days): 11.4%
- 2-Methyl (%) / 5-Chloro (%) ([1]; 0% cyclohexene, 13 days): < 0.1%
- 2-Methyl (%) / 5-Chloro (%) ([1]; 3.2% cyclohexene, 0 days): 10.1%
- 2-Methyl (%) / 5-Chloro (%) ([1]; 3.2% cyclohexene, 13 days): 0.19%
- 2-Methyl (%) / 5-Chloro (%) ([1]; 6.8% cyclohexene, 0 days): 10.9%
- 2-Methyl (%) / 5-Chloro (%) ([1]; 6.8% cyclohexene, 13 days): 0.10%
- 2-Methyl (%) / 5-Chloro (%) ([1]; 9.1% cyclohexene, 0 days): 10.6%
- 2-Methyl (%) / 5-Chloro (%) ([1]; 9.1% cyclohexene, 13 days): 8.6%
- 2-Methyl (%) / 5-Chloro (%) ([1]; 9.1% cyclohexene, 30 days): 0.0%
- 2-Methyl (%) / 5-Chloro (%) ([1]; 11.8% cyclohexene, 0 days): 10.5%
- 2-Methyl (%) / 5-Chloro (%) ([1]; 11.8% cyclohexene, 13 days): 7.9%
- 2-Methyl (%) / 5-Chloro (%) ([1]; 11.8% cyclohexene, 30 days): 0.0%
- 2-Methyl (%) / 5-Chloro (%) ([1]; 16.7% cyclohexene, 0 days): 10.2%
- 2-Methyl (%) / 5-Chloro (%) ([1]; 16.7% cyclohexene, 13 days): 9.0%
- 2-Methyl (%) / 5-Chloro (%) ([1]; 16.7% cyclohexene, 30 days): 0.0%
- 2-Methyl (%) / 5-Chloro (%) ([5]; 0% norbornene, 0 days): 12.2%
- 2-Methyl (%) / 5-Chloro (%) ([5]; 0% norbornene, 7 days): 0.23%
- 2-Methyl (%) / 5-Chloro (%) ([5]; 1.2% norbornene, 0 days): 16.7%
- 2-Methyl (%) / 5-Chloro (%) ([5]; 1.2% norbornene, 7 days): 0.09%
- 2-Methyl (%) / 5-Chloro (%) ([5]; 2.3% norbornene, 0 days): 16.5%
- 2-Methyl (%) / 5-Chloro (%) ([5]; 2.3% norbornene, 7 days): 0.09%
- 2-Methyl (%) / 5-Chloro (%) ([5]; 4.2% norbornene, 0 days): 16.2%
- 2-Methyl (%) / 5-Chloro (%) ([5]; 4.2% norbornene, 7 days): 0.07%
- 2-Methyl (%) / 5-Chloro (%) ([5]; 8.1% norbornene, 0 days): 15.7%
- 2-Methyl (%) / 5-Chloro (%) ([5]; 8.1% norbornene, 7 days): < 0.1%
- 2-Methyl (%) / 5-Chloro (%) ([5]; 14.1% norbornene, 0 days): 14.7%
- 2-Methyl (%) / 5-Chloro (%) ([5]; 14.1% norbornene, 7 days): 13.5%
- 2-Methyl (%) / 5-Chloro (%) ([5]; 14.1% norbornene, 21 days): < 0.1%
- stabilization with norbornene (in words) [6]: completely stabilized
